Results as given in the Kinase Knowledgebase extract (Sharma et al. 2016).

These molecules were tested against MAPK14 (human) (UniProt Q16539) (assay: Inhibition of MAPK14 Kinase Activity).
MAPK14 (human), sequence (Q16539 whole entry, looked up): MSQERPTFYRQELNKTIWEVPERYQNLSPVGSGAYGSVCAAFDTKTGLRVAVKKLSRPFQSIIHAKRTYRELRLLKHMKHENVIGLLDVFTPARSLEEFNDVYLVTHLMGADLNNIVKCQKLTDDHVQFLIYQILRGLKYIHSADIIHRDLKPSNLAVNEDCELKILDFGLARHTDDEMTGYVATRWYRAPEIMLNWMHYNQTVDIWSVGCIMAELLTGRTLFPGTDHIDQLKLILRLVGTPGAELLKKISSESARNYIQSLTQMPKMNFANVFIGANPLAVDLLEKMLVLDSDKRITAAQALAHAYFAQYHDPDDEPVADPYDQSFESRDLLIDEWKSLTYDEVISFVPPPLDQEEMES

| IC50 [µM] | SMILES |
| --- | --- |
| ≤ 2 | Cc1cccc(Cn2c(C(=O)N3CCC[C@H]3CO)cc3c2ccc(=O)n3-c2ccccc2)c1 |
| ≤ 2 | O=c1ccc2c(ccn2Cc2cccc(Cl)c2)n1-c1ccsc1 |
| ≤ 2 | CCOC(=O)c1cc2c(ccc(=O)n2-c2ccccc2)n1Cc1cccc(C)c1 |
| ≤ 2 | Cc1ccc(-n2c(=O)ccc3c2cc(C(=O)NN)n3Cc2cccc(Cl)c2)cc1 |
| ≤ 2 | O=c1ccc2c(ccn2Cc2ccncc2)n1-c1ccccc1 |
| ≤ 2 | CCOC(=O)c1cc2c(ccc(=O)n2-c2ccccc2[N+](=O)[O-])n1Cc1cccc(Cl)c1 |
| ≤ 2 | CCOC(=O)c1cc2c(ccc(=O)n2-c2ccc3[nH]ccc3c2)n1Cc1cccc(Cl)c1 |
| ≤ 2 | Cc1ccc(Cn2ccc3c2ccc(=O)n3-c2ccccc2)cc1 |
| ≤ 2 | Cc1ccccc1Cn1ccc2c1ccc(=O)n2-c1ccccc1 |
| ≤ 2 | O=c1ccc2c(ccn2Cc2cc(Cl)ccc2Cl)n1-c1ccccc1 |
| ≤ 2 | O=c1ccc2c(ccn2CCc2ccccc2)n1-c1ccccc1 |
| ≤ 2 | COc1ccc(-n2c(=O)ccc3c2ccn3Cc2ccccc2)cc1 |
| ≤ 2 | CON(C)C(=O)c1cc2c(ccc(=O)n2-c2ccccc2)n1Cc1cccc(Cl)c1 |
| ≤ 2 | O=C(c1cc2c(ccc(=O)n2-c2ccccc2)n1Cc1cccc(Cl)c1)N1CCCC1 |
| ≤ 2 | Cc1cccc(Cn2c(C(N)=O)cc3c2ccc(=O)n3-c2ccccc2)c1 |
| ≤ 2 | O=c1ccc2c(ccn2Cc2c(Cl)cccc2Cl)n1-c1ccccc1 |
| ≤ 2 | O=c1ccc2c(ccn2Cc2ccc(Cl)c(Cl)c2)n1-c1ccccc1 |
| ≤ 2 | NC(=O)c1cc2c(ccc(=O)n2-c2ccccc2)n1Cc1cccc(Cl)c1 |
| ≤ 2 | O=c1ccc2c(ccn2Cc2ccc(Cl)s2)n1-c1ccccc1 |
| ≤ 2 | CON(C)C(=O)c1cc2c(ccc(=O)n2-c2ccccc2)n1Cc1cccc(C)c1 |
| ≤ 2 | O=c1ccc2c(cc(S(=O)(=O)N3CCCC3)n2Cc2cccc(Cl)c2)n1-c1ccccc1 |
| ≤ 2 | CCOC(=O)c1cc2c(ccc(=O)n2-c2ccccc2)n1Cc1ccccc1 |
| ≤ 2 | O=C(c1ccccc1)n1ccc2c1ccc(=O)n2-c1ccccc1 |
| ≤ 2 | O=c1ccc2c(ccn2Cc2ccccc2)n1-c1ccccc1 |
| ≤ 2 | Cc1cccc(Cn2ccc3c2ccc(=O)n3-c2ccccc2)c1 |
| ≤ 2 | Cc1ccc(-n2c(=O)ccc3c2cc(C(N)=O)n3Cc2cccc(Cl)c2)cc1 |

| IC50 [µM] | SMILES |
| --- | --- |
| ≤ 2 | O=c1ccc2c(ccn2Cc2cccnc2)n1-c1ccccc1 |
| ≤ 2 | NNC(=O)c1cc2c(ccc(=O)n2-c2ccccc2)n1Cc1cccc(Cl)c1 |
| ≤ 2 | N#Cc1ccc(Cn2ccc3c2ccc(=O)n3-c2ccccc2)cc1 |
| ≤ 2 | NC(=O)c1cc2c(ccc(=O)n2-c2ccccc2)n1Cc1ccc(F)c(Cl)c1 |
| ≤ 2 | O=c1ccc2c(ccn2Cc2ccc(F)c(Cl)c2)n1-c1ccccc1 |
| ≤ 2 | CCOC(=O)c1cc2c(ccc(=O)n2-c2ccc(C)cc2)n1Cc1cccc(Cl)c1 |
| ≤ 2 | O=c1ccc2c(ccn2Cc2ccc(F)cc2F)n1-c1ccccc1 |
| ≤ 2 | CCOC(=O)c1cc2c(ccc(=O)n2-c2ccccc2)n1Cc1ccc(F)c(Cl)c1 |
| ≤ 2 | CCOC(=O)c1cc2c(ccc(=O)n2-c2ccsc2)n1Cc1cccc(Cl)c1 |
| ≤ 2 | CCOC(=O)c1cc2c(ccc(=O)n2-c2ccccc2)n1Cc1ccc(F)c(C)c1 |
| ≤ 2 | O=c1ccc2c(ccn2Cc2ccc(F)cc2)n1-c1ccccc1 |
| ≤ 2 | CON(C)C(=O)c1cc2c(ccc(=O)n2-c2ccccc2)n1Cc1ccc(F)c(Cl)c1 |
| ≤ 2 | O=c1ccc2c(ccn2Cc2nc3ccccc3s2)n1-c1ccccc1 |
| ≤ 2 | Cc1cc(Cn2c(C(N)=O)cc3c2ccc(=O)n3-c2ccccc2)ccc1F |
| ≤ 2 | CCOC(=O)c1cc2c(ccc(=O)n2-c2ccccc2)n1Cc1cccc(Cl)c1 |
| ≤ 2 | O=c1ccc2c(ccn2Cc2cccc(Cl)c2)n1-c1ccccc1 |
| ≤ 2 | NC(=O)c1cc2c(ccc(=O)n2-c2ccc3[nH]ccc3c2)n1Cc1cccc(Cl)c1 |
| ≤ 2 | CNC(=O)c1cc2c(ccc(=O)n2-c2ccccc2)n1Cc1cccc(Cl)c1 |
| ≤ 2 | O=c1ccc2c(ccn2Cc2ccc(Cl)cc2)n1-c1ccccc1 |
| ≤ 2 | N#Cc1cc2c(ccc(=O)n2-c2ccccc2)n1Cc1cccc(Cl)c1 |
| ≤ 2 | N#Cc1cccc(Cn2ccc3c2ccc(=O)n3-c2ccccc2)c1 |
| ≤ 2 | O=c1ccc2c(ccn2Cc2ccc(F)c(F)c2)n1-c1ccccc1 |
| ≤ 2 | CN(C)C(=O)c1cc2c(ccc(=O)n2-c2ccccc2)n1Cc1cccc(Cl)c1 |
| ≤ 2 | COc1cccc(Cn2ccc3c2ccc(=O)n3-c2ccccc2)c1 |
| ≤ 2 | N#Cc1ccccc1Cn1c(C(N)=O)cc2c1ccc(=O)n2-c1ccccc1 |
| ≤ 2 | CC(c1ccccc1)n1ccc2c1ccc(=O)n2-c1ccccc1 (stereo not drawn) |

| SMILES | IC50 [µM] |
| --- | --- |
| O=C(c1cn(Cc2ccccc2)c2ccc(=O)n(-c3ccccc3)c12)C(F)(F)F | ≤ 2 |
